Measurements: PubChem BioAssay AID449762 (Southern Research Specialized Biocontainment Screening …, 2010)
Results filed as inconclusive are left out.

Tested on: M. tuberculosis H37Rv growth inhibition, 7H9 media
Experiment: M. tuberculosis growth inhibition, HTS (AID 449762);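 further: bacterial growth assessed after seven days of incubation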
Details: for IC90: measured here: IC90 growth inhibition

Row | Structure (SMILES) | IC50 [µM] | IC90 [µM]
1 | C#CCOc1ccc2c(c1)c(C(C)=O)c(C)n2Cc1ccccc1 | 68.4 | > 100
2 | O=C(CSc1nc2ccccc2nc1N1CCOCC1)N1CCN(c2ccccc2)CC1 | 11.4 | 13.2
3 | O=C(Nc1ncc(Cc2ccccc2Cl)s1)C1=NCCN1 | 0.43 | 92.9
4 | Clc1ccc(NNc2ccnc3cc(Cl)ccc23)cc1 | 16.8 | 21.5
5 | COc1cc2c(cc1NC(=O)CN1C(=O)NC3(CCc4ccccc43)C1=O)oc1ccccc12 (stereo not given) | 29.5 | > 100
6 | Cc1cc(Cl)ccc1NNC(=O)CCc1ccccc1 | 94.5 | > 100
7 | C/C(=N\Nc1ccc([N+](=O)[O-])cc1)c1cccc(N)c1 | 62.9 | 88.3
8 | CCCCCC1CC(CC(=O)NC(=S)Nc2ccc([N+](=O)[O-])cc2)C(=O)O1 (stereo not given) | 92.9 | > 100
9 | COC(=O)C(C)Oc1ccc(-c2nccc(-c3ccccn3)n2)cc1 (stereo not given) | 1.73 | 4.04
10 | C/C(=N\Nc1ccc(S(=O)(=O)N2CCCCC2)cn1)c1cccc(Br)c1 | 32.7 | > 100
11 | COc1ccc(C[C@H]2CN3C(=NC[C@H]3Cc3ccccc3)N2CCNC(=O)CCC2CCCCC2)cc1 | 16.8 | 21.3
12 | Nc1ccc(N=Nc2ccccc2)c2cccnc12 | 10.9 | 49.5
13 | COc1ccc(-c2ccnc3nc(N4CCN(c5ccccc5)CC4)nn23)cc1 | 36.4 | 47.9
14 | C#CCOCCOCCOCCNc1nc(N2CCN(C(=O)CCCCCCCCCCNC(=O)[C@H](CCCCN)n3cc(CCCC(=O)O)nn3)CC2)nc(N2CCN(C(=O)CCCCCCCCCCNC(=O)[C@H](CCCN=C(N)N)n3cc(C[C@@H](C)CC)nn3)CC2)n1 | 4.78 | 5.97
15 | CCCCOC(=O)CSc1nnc(-c2ccc(Cl)cc2Cl)o1 | < 0.2 | 1.85
16 | CCOC(=O)c1ccc(NC(=O)C(C)Sc2nc(O)c(-c3ccccc3)c(=O)[nH]2)cc1 (stereo not given) | 5.47 | 22.6
17 | COc1ccc(CNC(=O)c2c(N)n(CCCN3CCOCC3)c3nc4ccccc4nc23)cc1 | 94 | > 100
18 | COc1cc2cc(C(c3nnnn3C(C)(C)C)N3CCc4ccccc43)c(=O)[nH]c2cc1OC (stereo not given) | 97.4 | > 100
19 | Cc1cccc(OCC(=O)NNC(=O)c2cc3ccccc3oc2=O)c1 | 25.4 | > 100
20 | COc1cccc(Nc2ccc([N+](=O)[O-])c3nonc23)c1 | 9.43 | 13.6
21 | Cc1c(Cl)ccc2c1NC(=O)[C@]21N[C@@H](Cc2ccccc2)[C@H]2C(=O)N(c3ccc(F)cc3)C(=O)[C@H]21 | 23 | 26.1
22 | Cc1ccc(C(=O)C2CCN(CC(=O)Nc3nc(C)cs3)CC2)cc1 | 13.6 | 25.2

Row | Structure (SMILES) | IC50 [µM] | IC90 [µM]
23 | CCNc1nc(NC(C)(C)C)nc(N2CCCCC2)n1 | 99.6 | > 100
24 | C=CCc1c(C)nc(SC)nc1Nc1ccc(C(C)=O)cc1 | 23.3 | 32.6
25 | CNC(CC(C)C)C(=O)NC1C(=O)NC(CC(N)=O)C(=O)NC2C(=O)NC3C(=O)NC(C(=O)NC(C(=O)O)c4cc(O)cc(O)c4-c4cc3ccc4O)C(O)c3ccc(c(Cl)c3)Oc3cc2cc(c3OC2OC(CO)C(O)C(O)C2OC2C[C@](C)(N)C(O)C(C)O2)Oc2ccc(cc2Cl)C1O (stereo not given in full) | 1.01 | 4.42
26 | Nc1ccc(C(=O)OCCCc2nc3cc4ccccc4cc3[nH]2)cc1 | 45.6 | 51.7
27 | Cc1ccc(/C=N/NC(=S)NC(C)C)o1 | 42.4 | 47.9
28 | N#Cc1c(SCC(N)=O)nsc1SCc1ccccc1Cl | 12.6 | 34.7
29 | CCc1c(C)sc(NC(=S)N2CCN(CC)CC2)c1C(=O)OC | 12.7 | > 100
30 | CCCCCCN=C1CC(C)(C)CC(=O)/C1=C(/O)CCC | 43 | > 100
31 | Cc1ccc(-c2ccc(/C=N/c3ncn[nH]3)o2)cc1Cl | 98.8 | > 100
32 | O=C(Nc1ccc([N+](=O)[O-])cc1)Nc1ccc(OC(F)F)c(Cl)c1 | 2.83 | 4.03
33 | Cc1ccc(S(=O)(=O)n2ccc3c(OCCOCCNCc4ccc(F)cc4)cccc32)cc1 | 22.1 | 25.5
34 | O=C(CCl)c1ccc2c(c1)CCN2C(=O)C1CCCCC1 | 16.7 | > 100
35 | Nc1cc(C(=O)OCC(=O)NNC(=O)c2cccs2)ccc1Cl | 64.2 | > 100
36 | Cc1ccc(C(=O)CC(SCC(=O)O)c2ccc([N+](=O)[O-])cc2)cc1 (stereo not given) | 5.78 | 6.72
37 | Cc1cccc(/C=C2/S/C(=N/N=C3\CC4CCC3(C)C4(C)C)NC2=O)c1 (stereo not given) | 7.92 | > 100
38 | O=C1/C(=N\S(=O)(=O)c2cccs2)C([n+]2ccc(CCCc3ccccc3)cc2)=C([O-])c2ccccc21 | 18.2 | 22.1
39 | CN(CC(=O)Nc1ccc(F)c(F)c1F)c1cnccn1 | 6.08 | 12.8
40 | Cc1cccc(C)c1Nc1c(-c2ccccn2)nc2ccccn12 | 2.18 | 5.73
41 | CCCCC(CC)CN=C(N)NC(N)=NCCCCCCN=C(N)NC(N)=NCC(CC)CCCC (stereo not given) | 3.61 | 4.76
42 | COC(=O)c1ccc2c(=O)[nH]c(CSc3nc(C)cs3)nc2c1 | 69 | > 100
43 | N=C1C(c2nc3ccccc3[nH]2)=C(O)CN1NC(=O)c1c[nH]c2ccccc12 | 13.5 | 30.7
44 | Cc1cc(C)n(C(=O)c2ccc([N+](=O)[O-])cc2[N+](=O)[O-])n1 | 4.57 | 8.45

Row | Structure (SMILES) | IC50 [µM] | IC90 [µM]
45 | CN(CC(=O)Nc1ccc(OC(F)(F)F)cc1)C(=O)/C=C/c1cc2c(cc1[N+](=O)[O-])OCO2 | 30.2 | 37.9
46 | Cc1cc(/C=C2\SC(=Nc3ccc(F)cc3)NC2=O)c(C)n1-c1ccc(S(N)(=O)=O)cc1 | 22.4 | 25.5
47 | CCCCC(=O)Nc1sc2c(c1C(=O)OCC)CCC(C=O)=C2Cl | 14.6 | 44.5
48 | c1ccc(Nc2nc(N3CCCCC3)nc(N3CCNCC3)n2)cc1 | 46.1 | 68.9
49 | O=C(NCCN1CCN(c2cccc(Cl)c2)CC1)c1ccc(CSc2nc3ccncc3[nH]2)cc1 | 23.2 | 35.3
50 | Cc1ccc(/C=C/S(=O)(=O)NCC(=O)OCC(=O)Nc2c(F)cccc2F)cc1 | 5.26 | 13.2
51 | CN(Cc1ccc(Br)cc1)C(=O)CCN1C(=O)c2cccc([N+](=O)[O-])c2C1=O | 29.1 | > 100
52 | O=c1[nH][nH]c(-c2ccccc2O)c1C(C[N+](=O)[O-])c1cccc(Cl)c1 (stereo not given) | 74.6 | > 100
53 | N#Cc1c(-c2ccccc2)c(-c2ccccc2)nn(CC(=O)NNC(=O)Nc2ccc(Cl)c(Cl)c2)c1=O | 49.2 | 55.5
54 | Cc1cccc(/C=C/c2onc(C)c2[N+](=O)[O-])n1 | 10.9 | 19.1
55 | CC1=NNC(=O)/C1=C\c1cn(-c2ccccc2)nc1-c1ccc(Cl)cc1 | 28.7 | 37.2
56 | COc1ccc(C(=O)/C=C/Sc2nc3ccccc3o2)cc1 | 37.8 | > 100
57 | C/C(CC(=O)Nc1ccc(C)c(Cl)c1)=N\NC(=O)Cc1cnc(N)s1 | – | > 100
58 | COc1cc(-c2ccc3oc(-c4ccsc4)cc(=O)c3c2)cc(OC)c1OC | 2.07 | 17.6
59 | O=C1CCCC2=C1C1c3ccccc3C(=O)N1c1ccc(C(=O)c3ccccc3)cc1N2 (stereo not given) | 16 | 21.9
60 | Cc1c([N+](=O)[O-])cnc(Sc2ccccc2)c1[N+](=O)[O-] | 2.01 | 7.59
61 | Cc1ccc2nc(-c3ccncc3)cc(-c3ccccc3)c2c1 | 36.1 | 47.2
62 | Cc1nc(-c2nc(-c3c(C(=O)NNC(=O)c4ccc(Cl)cc4)noc3C)cs2)cs1 | 7.57 | 18.2
63 | COc1ccccc1/C=N/NC(=O)NC12CC3CC(CC(C3)C1)C2 | – | > 100
64 | CCN(CC)Cc1nc2c(c(=O)[nH]1)C(CC)(CC)Cc1ccccc1-2 | 4.46 | 18.4
65 | CCCc1ncc(CN2CCCC(C(=O)Nc3ccc(-c4cccc(OC)c4)cc3)C2)cn1 (stereo not given) | – | > 100
66 | C/C(=N\NC(=S)Nc1cccc(C)c1)c1cccc(N)c1 | 25.8 | 30.4

Row | Structure (SMILES) | IC50 [µM] | IC90 [µM]
67 | C/C(=N\NC(N)=S)c1ccc(Cl)s1 | 12 | 17.7
68 | Cc1ccccc1C1C(C#N)=C2N=C(N)c3c(sc4c3CCCCC4)N2C2=C1C(=O)CC(C)(C)C2 (stereo not given) | – | > 100
69 | Cc1ccnc(NC(=O)c2cc3ccccc3o2)c1 | 43.9 | > 100
70 | Cc1ccc(NC(=O)Cn2ccsc2=N)c([N+](=O)[O-])c1 | 5.48 | 12.7
71 | COc1ccc(NC(=O)CSC2CCCCC2)cc1 | 35.2 | > 100
72 | Cc1nn2c(NCc3ccccn3)cc(C(C)C)nc2c1-c1ccccc1 | 2.34 | 3.29
73 | O=C(OCC(=O)c1c[nH]c2ccccc12)c1cc(Br)ccc1O | 9.23 | 15.3
74 | CCOc1cc2c(cc1OCC)-n1cccc1C(c1ccc(C(C)C)cc1)NC2 (stereo not given) | 20.6 | 29.6
75 | CC(=O)CCSc1ncnc2sc(-c3ccccc3)cc12 | – | > 100
76 | Cc1ccc(Nc2nc(N)nc(CN3CCc4ccccc4C3)n2)cc1 | 2.2 | 8.89
77 | CC(C)(C)OC(=O)NNc1c2ccccc2nc2ccccc12 | 22.8 | 25.7
78 | Cc1ccc(C)c(NC(CC(=O)c2ccccc2)C(=O)OCC(=O)c2cccs2)c1 (stereo not given) | 5.16 | 7.68
79 | C/C(=C\C(=S)Nc1ccccc1)Nc1ccc2ccccc2c1 | 40.6 | 52.9
80 | Cc1cc(C(=O)N[C@H](c2ccccc2)[C@@]2(C)C[C@@H]2[C@@H](C)C(=O)Nc2ccc3ccccc3c2)n(C)n1 | 24.4 | 27.6
81 | Nn1c(SCc2ccccc2)nc2ccccc21 | 28 | > 100
82 | Cc1ccc(C)c(-c2nnc(NC(=O)C3=COCCO3)o2)c1 | 5.33 | 12.2
83 | Clc1ccc2c(c1)CCc1cccnc1C2=C1CCNCC1 | 26.8 | 31.3
84 | COc1ccc(C)c2sc(N(CCN(C)C)C(=O)/C=C/c3cccs3)nc12 | 25.2 | 35.9
85 | COc1ccc(OC)c(C(=O)NC(CC(N)=O)c2ccc(NCc3ccc(F)c(F)c3)c([N+](=O)[O-])c2)c1 (stereo not given) | 5.38 | 23.6
